Measurements as given in ChEMBL document CHEMBL4316591, “Optimization of Pan-Pim Kinase Activity and Oral Bioavailability Leading to Diaminopyrazole (GDC-0339) for the Treatment of Multiple Myeloma” (J Med Chem, 2019).
≈ marks a conversion by molar mass, not a printed value.

Experiments:
[1] = Total clearance in cynomolgus monkey at 0.5 mg/kg, iv by LC-MS/MS analysis; format: ADME, organism-based, Macaca fascicularis; details: in vivo
[2] = Half life in mouse at 1 mg/kg, iv by LC-MS/MS analysis; format: ADME, organism-based; details: in vivo
[3] = Volume of distribution at steady state in Sprague-Dawley rat at 1 mg/kg, iv by LC-MS/MS analysis; format: ADME, organism-based; details: in vivo, read-out: Vdss
[4] = Oral bioavailability in Sprague-Dawley rat at 100 mg/kg by LC-MS/MS analysis; format: ADME, organism-based; details: in vivo
[5] = Oral bioavailability in cynomolgus monkey at 100 mg/kg by LC-MS/MS analysis; format: ADME, organism-based, Macaca fascicularis; details: in vivo
[6] = Oral bioavailability in cynomolgus monkey at 1 mg/kg by LC-MS/MS analysis; format: ADME, organism-based, Macaca fascicularis; details: in vivo
in vivo [7] = details: Sprague-Dawley, rat, iv, 1 mg/kg
[8] = Oral bioavailability in mouse at 100 mg/kg by LC-MS/MS analysis; format: ADME, organism-based; details: in vivo
[9] = Volume of distribution at steady state in cynomolgus monkey at 0.5 mg/kg by LC-MS/MS analysis; details: in vivo, read-out: Vdss
[10] = Half life in Sprague-Dawley rat at 1 mg/kg, iv by LC-MS/MS analysis; format: ADME, organism-based; details: in vivo
[11] = Volume of distribution at steady state in mouse at 1 mg/kg, iv by LC-MS/MS analysis; format: ADME, organism-based; details: in vivo, read-out: Vdss
[12] = Oral bioavailability in mouse at 5 mg/kg by LC-MS/MS analysis by LC-MS/MS analysis; format: ADME, organism-based; details: in vivo
physchem = details: buffer, pH 6.5
[13] = Total clearance in mouse at 1 mg/kg, iv by LC-MS/MS analysis; format: ADME, organism-based; details: in vivo
[14] = Half life in cynomolgus monkey at 0.5 mg/kg by LC-MS/MS analysis; details: in vivo
in vivo [15] = details: Sprague-Dawley, rat, po, 5 mg/kg

| Structure (SMILES) | clearance (in vivo [7]) | solubility thermodynamic (physchem) | bioavailability (in vivo [15]) | other results |
| --- | --- | --- | --- | --- |
| Cn1ncc(NC(=O)c2nc(-c3c(F)cccc3F)sc2N)c1N1CC[C@@H](N)[C@H](F)CC1 | 8 mL/min/kg | 67 µM (≈ 31.2 µg/mL) | 33% | clearance [1]: 34 mL/min/kg; half-life [2]: 0.9 h; Vd [3]: 0.9 L/kg; bioavailability [4]: 28%; bioavailability [5]: 60%; bioavailability [6]: 35%; bioavailability [8]: 34%; Vd [9]: 5 L/kg; half-life [10]: 1.8 h; Vd [11]: 6.8 L/kg; bioavailability [12]: 11%; clearance [13]: 135 mL/min/kg; half-life [14]: 1.8 h |
| Cn1ncc(NC(=O)c2nc(-c3c(F)cccc3F)sc2N)c1[C@@]12CC[C@@H](N)[C@@H](CC1)O2 | 3 mL/min/kg | 16 µM (≈ 7.37 µg/mL) | 24% |  |
| Cn1ncc(NC(=O)c2nc(-c3c(F)cccc3F)sc2N)c1N1CCC[C@H](NCC(F)(F)F)CC1 |  | 1 µM (≈ 0.53 µg/mL) |  |  |
| Cn1ncc(NC(=O)c2nc(-c3c(F)cccc3F)sc2N)c1N1CCC[C@H](NCC(F)F)CC1 |  | 1 µM (≈ 0.512 µg/mL) |  |  |
| CO[C@H]1C[C@H](N)CCN(c2c(NC(=O)c3nc(-c4c(F)cccc4F)sc3N)cnn2C)C1 | 2 mL/min/kg | 62 µM (≈ 29.6 µg/mL) | 3% |  |
| Cn1ncc(NC(=O)c2nc(-c3c(F)cccc3F)sc2N)c1C1CCC(N)C(F)CC1 (stereo not drawn) |  | 88 µM (≈ 40.9 µg/mL) |  |  |
| Cn1ncc(NC(=O)c2nc(-c3c(F)cccc3F)sc2N)c1N1CCCC(O)CC1 (stereo not drawn) | 7 mL/min/kg | < 1 µM | 38% |  |
